Test: gradient 5% acetonitrile 3 min, to 50% in 2 min, to 85% in 15 min, held 3 min, 100 µL/min
Details: column: Zorbax Extend-C18 2.1 x 50 mm; eluents: water / acetonitrile, 0.1% formic acid
Procedure, shortened: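 Each retention time is based on an adduct peak selected computationally and verified by manual inspection. Measurements used HPLC–quadrupole time-of-flight mass spectrometry in positive and negative ionization mode on mixtures of ~100 pure standards. Chromatography ran on a Zorbax Extend-C18 column (2.1 × 50 mm, 1.8 μm) at 100 μL/min with water and acetonitrile, each containing 0.1% formic acid, and dead and dwell volumes of 40 μL and 900 μL.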

SMILES	RP-LC retention time [s]
Cc1cc(C)cc(NC(=O)N(C)CCc2noc(COc3ccccc3)n2)c1	949
COc1cccc(C(=O)N2CCC3(CC2)NC(=O)c2cc(Cl)ccc2N3C)c1	800
CC(=O)Cc1nsc(NC(=O)c2cc(-c3cccc(C(F)(F)F)c3)oc2C)n1	657
CCCn1cc(CCNS(=O)(=O)c2ccc(CC)cc2)c2cccnc21	935
CC(C)n1nnc2cc(C(=O)O)ccc21	687
COc1ccc(OC)c(NC(=O)C2Cn3cccc3C(=O)N2C)c1 (centres undefined)	699
O=c1n(Cc2cccc(F)c2)nc2c(S(=O)(=O)N3CCN(c4ccc(F)cc4)CC3)cccn12	967
Cc1ccccc1-c1noc(C2CCCN2C(=O)CNS(=O)(=O)c2ccc(Cl)cc2)n1 (centres undefined)	1020
Cc1cc(C)cc(NC(=O)Nc2nccn(-c3ccc(Br)cc3)c2=O)c1	1130
CCn1cc(C)c(C(=O)O)c1CC(=O)Nc1cc(Cl)c(OC)cc1OC	901
N#CC1=CN(c2ccc(C(F)(F)F)cc2)c2ccccc2S1(=O)=O	963
CCc1cc(C(=O)Nc2cccc(C#N)c2)nc2ccnn12	939
CCCCOc1ccc(NC(=O)Nc2ccc3c(c2)CN(C(=O)CC)CC3)cc1	861
Cc1cccc(S(=O)(=O)N2CCC(c3nc(C(=O)N(C)C)c(C)o3)CC2)c1	826
O=C(c1cnccn1)N1[C@H]2CC[C@@H]1c1cnc(-c3ccc(F)cc3)nc1C2	810
CCn1c(C(=O)NC2CCCC2)cc2sc(Cl)cc21	1110
COc1ccc(NCc2ccc3c(c2)n(C)c(=O)n3C)cc1Cl	1150
Cc1ccc(-c2nc3ccccn3c2NC(=O)NCc2ccc(F)cc2)cc1	681
CC(C)NC(=O)c1ccc(OCC2CCCN(C(=O)c3ccc(Cl)cc3)C2)cc1 (centres undefined)	881
CCc1nc(OCC(=O)NCc2ccc(F)cc2)c2ccccc2n1	753
CCn1cc(C)c(C(=O)O)c1CC(=O)Nc1cc(C)ccc1C	866

SMILES	RP-LC retention time [s]
Cc1ccc(CNC(=O)N2CCC3(CC2)NC(=O)c2ccc(Cl)cc2N3C)cc1	843
Cc1nc2cccnc2n1CC1CCCN(S(=O)(=O)c2ccc3c(c2)OCCO3)C1 (centres undefined)	672
COC(=O)c1cc2n(n1)CC(C)(C(=O)NC1CCCCC1)N(c1cccc(F)c1)C2=O (centres undefined)	737
Cc1ccc2c(c1)cc(S(=O)(=O)c1ccccc1)c(=O)n2CC(=O)NCc1ccc2c(c1)OCO2	899
COCCn1cc(CCNC(=O)Nc2ccc(Cl)cc2)c2cccnc21	760
COc1ccc(-n2c(CN3CCN(C(=O)NCc4ccco4)CC3)nc3cccnc32)cc1	617
CCOC(=O)CCC(=O)N(Cc1ccsc1)CC(F)(F)F	839
COc1ccccc1C(=O)N1C[C@H](c2nc(-c3cccnc3)no2)[C@@H](C)C1	758
O=C(NC1CCN(c2cc(-c3cccs3)[nH]n2)C1)c1ccc2[nH]ccc2c1 (centres undefined)	672
CCc1noc(NC(C)=O)c1-c1ccc(C)c(S(=O)(=O)Nc2ccc(Br)cc2F)c1	903
CN(CC1CCCO1)S(=O)(=O)c1ccc(C(=O)N2CCc3ccccc3C2)cc1 (centres undefined)	808
Cc1cc(OCC(=O)NCc2ccc3c(c2)OCO3)nc(N2CCCCC2)n1	592
CCOc1ccccc1NC(=O)N1CCCC1c1nc(-c2cccc(OC)c2)no1 (centres undefined)	1100
O=c1c(S(=O)(=O)N2CCCC2)cccn1Cc1ccc(Cl)cc1	876
Cc1cccn2cc(-c3cccc(S(=O)(=O)N4CCCCCC4)c3)nc12	692
C=CCNC(=O)Cc1cn2cc(Br)ccc2n1	557
CC1COC2(CCN(c3nc(=O)c4cc(C(F)(F)F)cc([N+](=O)[O-])c4s3)CC2)O1 (centres undefined)	1000
CC(C)c1cccc(NC(=O)Cn2c(=O)cc(-c3nc(C4CC4)no3)c3ccccc32)c1	1080
CCn1nc(N2CCCC(NS(=O)(=O)c3ccc(F)c(Cl)c3)C2)ccc1=O (centres undefined)	817
Cn1ncc(N2CCCC(C(=O)N3CCc4ccccc4C3)C2)cc1=O (centres undefined)	732
Cc1cccc(NC(=O)C2CCCN2S(=O)(=O)c2cccc3nsnc23)n1 (centres undefined)	798

SMILES	RP-LC retention time [s]
O=C(Cc1cccs1)N1CCC2(CC1)OCCN2S(=O)(=O)c1ccccc1	783
CCN1CCN(S(=O)(=O)c2cc(-c3nnc(C4CC4)o3)co2)CC1	587
CCC(=O)Nc1nc(-c2ccc3c(c2)NC(=O)C(C)O3)c(C)s1 (centres undefined)	759
Cc1ccc(CN2CCC(c3nc(-c4cnccn4)n[nH]3)CC2)o1	566
Cc1noc(C)c1CC(=O)NCC12CCC=C1N(C)C(=O)CC2 (centres undefined)	638
O=C(NCCc1csc(-c2ccccc2)n1)C1CCN(S(=O)(=O)c2ccccc2F)CC1	893
Cc1csc(-n2nc(C)c(CC(=O)Nc3ccccc3F)c2C)n1	938
O=C(NCC1CC1)c1cccc(OC2CN(Cc3cc4ccccc4nc3Cl)C2)c1	667
O=C(c1ccc(F)cc1)N(CC1CCOC1)C1CC1 (centres undefined)	747
CCCN(C(=O)CC(=O)OCC)c1nc(-c2ccc(C)cc2)cs1	1250
CN1C(=O)NC2(CCN(S(=O)(=O)c3cccnc3)CC2)C1=O	589
COc1ccc(-c2noc(CCCC(=O)Nc3nc(-c4ccc(Cl)cc4)c(C)s3)n2)cc1	1190
O=C(CCc1nnc2ccc(NCc3ccc(F)cc3)nn12)N1CCN(c2ccccn2)CC1	612
O=C(c1cc(-c2cccnc2)n[nH]1)N1CCC(C(=O)N2CCN(c3ccc(Cl)cc3)CC2)CC1	694
COC(=O)c1c(C)[nH]c(C(=O)N2CCC(CC(=O)NC(C)c3ccccc3)CC2)c1C (centres undefined)	762
CCC(=O)N1CCC2(C1)C(=O)N(C)c1ccc(OC)cc12 (centres undefined)	652
COc1ccc(F)cc1S(=O)(=O)N1CCCC(Cn2c(C)nc3cccnc32)C1 (centres undefined)	680
O=S(=O)(c1cccnc1)N1CCCC(Cn2c(C3CC3)nc3cccnc32)C1 (centres undefined)	650
Cc1cc2c(=O)n(CC(=O)NCc3ccc(F)cc3)c3cccnc3n2n1	693
CSc1cccc(NC(=O)CSc2nnc3c4cc(-c5ccc(C)c(C)c5)nn4ccn23)c1	1030

Further lines, results first:

RP-LC retention time [s]	SMILES
869	Cc1ccc(N(C(=O)Cc2ccccc2)C2C=CS(=O)(=O)C2)cc1Cl (centres undefined)
761	CC1CC(=O)c2cnn(-c3nc4ccccc4[nH]3)c2C1 (centres undefined)
1260	Cc1ccc(-c2nc(-c3ccc(S(=O)(=O)N4CCCC4)cc3)no2)cc1F
837	O=C(c1ccc(F)c(F)c1)N1CCN(c2cc(-c3ccc(F)cc3)[nH]n2)CC1
1090	CC(C)Oc1ccc(-c2noc(Cn3c(=O)n(-c4ccccc4F)c(=O)c4sccc43)n2)cc1
718	O=C(c1cn2cc(Cl)ccc2n1)N1CCCCCC1
577	CCn1cc(S(=O)(=O)N2C[C@@H](C(=O)NC)[C@H](c3n[nH]c(C)n3)C2)cn1
676	CCNC(=O)NC1CCN(c2nc3ccccc3n(C)c2=O)CC1
627	CCCCN(C)C(=O)Cn1c(C2CCCN2C(C)=O)nc2ccccc21 (centres undefined)
823	Cc1ccc(CNC(=O)c2ccc(CN3CCN(Cc4ccc(F)cc4)C(=O)C3=O)cc2)o1
595	COCC(C)(O)CNC(=O)Nc1c(F)cccc1F (centres undefined)
606	Cc1nn(CC(=O)N2CCCN(C)CC2)c(=O)c2nc(-c3ccccc3)sc12
1120	Cc1cccc(-c2nc(-c3ccc4c(c3)nc(C)c(=O)n4C)no2)c1
952	CCCc1noc(-c2ccnc(-n3cnc(C(=O)NC4CCCC4)c3)c2)n1
740	O=S(=O)(NCc1nnnn1C1CCCCC1)c1cccs1
769	CCc1ccc(S(=O)(=O)N2CCCC(Cn3c(C)nc4cccnc43)C2)cc1 (centres undefined)
1110	Cc1cccc(-c2nnc(-c3cc(S(=O)(=O)N4CCCC4)ccc3Cl)o2)c1
622	CCn1c(CCNC(=O)c2ccc(OC)c(F)c2)nc2cccnc21
768	O=C(NCc1ccc(Cl)cc1)c1ccc2c(c1)N(CC(=O)N1CCCC1)C(=O)CO2
762	COc1ccc(Cl)c2c(=O)c3c([nH]c12)CCN(CC(=O)NCc1ccc(Cl)cc1)C3
828	Cc1ccc(C(=O)N2CCC(CC(=O)NCCc3c[nH]c4ccc(Cl)cc34)CC2)cc1
627	Cc1cccc2c1ncn1c(=O)n(CC(=O)NCc3ccccc3Cl)nc21
834	O=C(Cn1ccc2sccc2c1=O)Nc1cccc(C(F)(F)F)c1
1160	Cc1noc(-c2cc(S(=O)(=O)N3CCC(C)CC3)c(C)s2)c1C
1020	Cc1cccc(-c2noc(CCn3nc(-c4ccccc4)ccc3=O)n2)c1
847	O=C(CN1CCN(Cc2ccc(F)cc2)C1=O)NCCc1ccccc1Cl
659	CC1CC(C)CN(CCCNC(=O)Cn2ncc3c4ccccc4n(C)c3c2=O)C1 (centres undefined)

Reference: the METLIN SMRT retention time set (Domingo-Almenara et al. 2019)
